Assay results published in the supplement of paper PMC11061612.

Columns and labels:
[1] = compound: COc1cccc(OCCCN)c1-c1cc(Nc2cnc(C#N)cn2)n[nH]1 [Prexasertib]; details: max 1 µM
Method in brief: (§1)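 Cancer cell lines in 1536-well plates (7.5 μl DMEM/F12 or RPMI, 10% FBS) were held 24 hours at 37°C and 5% CO2 and then dosed for 72 hours at a final DMSO of typically 0.2%. Viability was taken from CellTiter-Glo 2.0 luminescence, scaled between blank-well and DMSO-well means. Curves were fitted as two-parameter logistic models with a non-linear mixed effects model, from which the single-agent IC50 was taken.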

[2] = compound: COc1cccc2c1C(=O)c1c(O)c3c(c(O)c1C2=O)C[C@@](O)(C(=O)CO)C[C@@H]3O[C@H]1C[C@H](N)[C@H](O)[C@H](C)O1 [Doxorubicin]; details: max 1 µM
Method in brief: as §1

[3] = compound: CS(=O)(=O)CCNCc1ccc(-c2ccc3ncnc(Nc4ccc(OCc5cccc(F)c5)c(Cl)c4)c3c2)o1 [Lapatinib]; details: max 10 µM
Method in brief: as §1

[4] = compound: CCc1c2c(nc3ccc(O)cc13)-c1cc3c(c(=O)n1C2)COC(=O)[C@]3(O)CC [SN-38]; details: max 0.3 µM
Method in brief: as §1

[5] = compound: COc1nnc2ccc(N3CCC(c4ccc(OCCN5CCN(C)C(=O)[C@H]5C)cc4)CC3)nn12 [AZD5153]; details: max 1 µM
Method in brief: as §1

[6] = compound: CC1=C(C(=CC=C1)Cl)NC(=O)C2=CN=C(S2)NC3=CC(=NC(=N3)C)N4CCN(CC4)CCO [Dasatinib]; details: max 2 µM
Method in brief: as §1

[7] = compound: CC1(C)CCC(CN2CCN(c3ccc(C(=O)NS(=O)(=O)c4ccc(NCC5CCOCC5)c([N+](=O)[O-])c4)c(Oc4cnc5[nH]ccc5c4)c3)CC2)=C(c2ccc(Cl)cc2)C1 [Venetoclax]; details: max 1 µM
Method in brief: as §1

[8] = compound: COc1cc(Nc2ncc3c(n2)-c2ccc(Cl)cc2C(c2c(F)cccc2OC)=NC3)ccc1C(=O)O [Alisertib]; details: max 10 µM
Method in brief: as §1

[9] = compound: O=C(Nc1ccc2[nH]nc(-c3ccncc3)c2c1)[C@@H]1CCN(CC(=O)N2CCN(c3ccc(-c4ncccn4)cc3)CC2)C1; details: max 5 µM
Method in brief: as §1

[10] = compound: Cn1cnc2c(F)c(Nc3ccc(Br)cc3Cl)c(C(=O)NOCCO)cc21 [Selumetinib]; details: max 10 µM
Method in brief: as §1

[11] = compound: C1CN(CCC1(C(=O)N[C@@H](CCO)C2=CC=C(C=C2)Cl)N)C3=NC=NC4=C3C=CN4 [AZD5363]; details: max 10 µM
Method in brief: as §1

[12] = compound: CN(CC[C@H](CSC1=CC=CC=C1)NC2=C(C=C(C=C2)S(=O)(=O)NC(=O)C3=CC=C(C=C3)N4CCC(CC4)[C@H](C5=CC=CC=C5C6=CC=C(C=C6)Cl)O)S(=O)(=O)C(F)(F)F)CCO [AZD4320]; details: max 1 µM
Method in brief: as §1

[13] = compound: NC1(c2ccc(-c3nc4ccn5c(=O)[nH]nc5c4cc3-c3ccccc3)cc2)CCC1 [MK-2206]; details: max 10 µM
Method in brief: as §1

[14] = compound: CCN(CCO)CCCOc1ccc2c(Nc3cc(CC(=O)Nc4cccc(F)c4)[nH]n3)ncnc2c1 [AZD2811]; details: max 1 µM
Method in brief: as §1

[15] = compound: C=CCn1c(=O)c2cnc(Nc3ccc(N4CCN(C)CC4)cc3)nc2n1-c1cccc(C(C)(C)O)n1 [AZD1775]; details: max 3 µM
Method in brief: as §1

[16] = compound: CC1=CN2[C@@H](C1)C=NC3=CC(=C(C=C3C2=O)OC)OCCCCCOC4=C(C=C5C(=C4)N=C[C@@H]6CC(=CN6C5=O)C)OC [SG3199]; details: max 0.001 µM
Method in brief: as §1

[17] = compound: Cc1cc2ncnn2cc1Nc1ncc2c(n1)n(C1CCOCC1)c(=O)n2C [AZD7648]; details: max 10 µM
Method in brief: as §1

[18] = compound: C1CC(C1)(C(=O)[O-])C(=O)[O-].N.N.[Pt+2] [Carboplatin]; details: max 10 µM
Method in brief: as §1

[19] = compound: C[C@@H](Oc1cc(-c2cnn(C3CCNCC3)c2)cnc1N)c1c(Cl)ccc(F)c1Cl [Crizotinib]; details: max 10 µM
Method in brief: as §1

[20] = compound: COc1cc([C@@H]2c3cc4c(cc3[C@@H](O[C@@H]3O[C@@H]5CO[C@@H](C)O[C@H]5[C@H](O)[C@H]3O)[C@H]3COC(=O)[C@H]23)OCO4)cc(OC)c1O [Etoposide]; details: max 10 µM
Method in brief: as §1

[21] = compound: C[C@@H]1COCCN1C2=NC(=NC(=C2)C3(CC3)[S@](=N)(=O)C)C4=C5C=CNC5=NC=C4 [AZD6738]; details: max 10 µM
Method in brief: as §1

[22] = compound: Cc1nc(-c2cn3c(n2)-c2ccc(-c4cnn(C(C)(C)C(N)=O)c4)cc2OCC3)n(C(C)C)n1 [Taselisib]; details: max 10 µM
Method in brief: as §1

[23] = compound: CC(=O)c1c(C)c2cnc(Nc3ccc(N4CCNCC4)cn3)nc2n(C2CCCC2)c1=O [Palbociclib]; details: max 10 µM
Method in brief: as §1

[24] = compound: O=C(c1cc(Cc2n[nH]c(=O)c3ccccc23)ccc1F)N1CCN(C(=O)C2CC2)CC1 [Olaparib]; details: max 10 µM
Method in brief: as §1

[25] = compound: Nc1ccn([C@@H]2O[C@H](CO)[C@@H](O)C2(F)F)c(=O)n1 [Gemcitabine]; details: max 0.3 µM
Method in brief: as §1

[26] = compound: COc1cc2ncnc(Nc3ccc(F)c(Cl)c3)c2cc1OCCCN1CCOCC1 [Gefitinib]; details: max 10 µM
Method in brief: as §1

[27] = compound: C[C@@H](c1ccc2nccn2c1)n1nnc2ncc(-c3cnn(C)c3)nc21 [Savolitinib]; details: max 1 µM
Method in brief: as §1

[28] = compound: O=c1[nH]cc(F)c(=O)[nH]1 [5-Fluorouracil]; details: max 20 µM
Method in brief: as §1

[29] = compound: C[C@@H](Nc1cc(F)cc(F)c1)c1cc(C(=O)N(C)C)cc2c(=O)cc(N3CCOCC3)oc12 [AZD8186]
Method in brief: as §1

[30] = compound: CC(=O)Nc1cccc(-n2c(=O)n(C3CC3)c(=O)c3c(Nc4ccc(I)cc4F)n(C)c(=O)c(C)c32)c1 [Trametinib]; details: max 1 µM
Method in brief: as §1

[31] = compound: CC(C)n1c(=O)n(C)c2cnc3cc(F)c(-c4ccc(OCCCN5CCCCC5)nc4)cc3c21 [AZD1390]; details: max 0.3 µM
Method in brief: as §1

[32] = compound: Cc1c2c(nn1C)CSCc1cc(n(C)n1)CSc1cc(c3ccccc3c1)OCCCc1c(C(=O)O)n(C)c3c-2c(Cl)ccc13 [AZD5991]; details: max 1 µM
Method in brief: as §1

[33] = compound: CC(=O)O[C@H]1C(=O)[C@@]2(C)[C@H]([C@H](OC(=O)c3ccccc3)[C@]3(O)C[C@H](OC(=O)[C@H](O)[C@@H](NC(=O)c4ccccc4)c4ccccc4)C(C)=C1C3(C)C)[C@]1(OC(C)=O)CO[C@@H]1C[C@@H]2O [Paclitaxel]; details: max 3 µM
Method in brief: as §1

[34] = compound: N#Cc1cnc(Nc2cc(NC[C@H]3CNCCO3)c(C(F)(F)F)cn2)cn1 [SRA737]; details: max 10 µM
Method in brief: as §1

[35] = compound: CN(C)CCCOc1ccc(-c2ccc3ncc4c(c3c2)n(C2CCOCC2)c(=O)n4C)cn1 [AZD0156]; details: max 3 µM
Method in brief: as §1

[36] = compound: C1CN(CCC1(C(=O)N[C@@H](CCO)C2=CC=C(C=C2)Cl)N)C3=NC=NC4=C3C=CN4 [Capivasertib]; details: max 10 µM
Method in brief: as §1

Cell Line | IC50, cell viability 72 h [1] [µM] | IC50, cell viability 72 h [2] [µM] | IC50, cell viability 72 h [3] [µM] | IC50, cell viability 72 h [4] [µM] | IC50, cell viability 72 h [5] [µM] | IC50, cell viability 72 h [6] [µM] | IC50, cell viability 72 h [7] [µM] | IC50, cell viability 72 h [8] [µM] | IC50, cell viability 72 h [9] [µM] | IC50, cell viability 72 h [10] [µM] | IC50, cell viability 72 h [11] [µM] | IC50, cell viability 72 h [12] [µM] | IC50, cell viability 72 h [13] [µM] | IC50, cell viability 72 h [14] [µM] | IC50, cell viability 72 h [15] [µM] | IC50, cell viability 72 h [16] [µM] | IC50, cell viability 72 h [17] [µM] | IC50, cell viability 72 h [18] [µM] | IC50, cell viability 72 h [19] [µM] | IC50, cell viability 72 h [20] [µM] | IC50, cell viability 72 h [21] [µM] | IC50, cell viability 72 h [22] [µM] | IC50, cell viability 72 h [23] [µM] | IC50, cell viability 72 h [24] [µM] | IC50, cell viability 72 h [25] [µM] | IC50, cell viability 72 h [26] [µM] | IC50, cell viability 72 h [27] [µM] | IC50, cell viability 72 h [28] [µM] | IC50, cell viability 72 h ([29]; max 10 µM) [µM] | IC50, cell viability 72 h [30] [µM] | IC50, cell viability 72 h [31] [µM] | IC50, cell viability 72 h [32] [µM] | IC50, cell viability 72 h [33] [µM] | IC50, cell viability 72 h [34] [µM] | IC50, cell viability 72 h [35] [µM] | IC50, cell viability 72 h [36] [µM] | IC50, cell viability 72 h ([29]; max 3 µM) [µM]
ECC10 (Gastric Carcinoma) | 0.324 | 0.131 | 6.71 | 0.00773 | 0.139 | > 2 | 0.23 | 0.2 | 0.375 | > 10 | > 10 | 0.0218 | > 10 | 0.0252 | 1.13 | > 0.001 | > 10 | > 10 | 4.92 | 1.86 | > 10 | > 10 | > 10 | > 10 | 0.05 | > 10 | > 1 | > 20 | > 10 | 0.237 | > 0.3 | 0.713 | 0.0109 | > 10 | > 3 | – | –
COLO-320-HSR (Colorectal Carcinoma) | 0.232 | > 1 | > 10 | > 0.3 | > 1 | > 2 | > 1 | > 10 | > 5 | > 10 | > 10 | > 1 | > 10 | > 1 | 0.459 | > 0.001 | > 10 | > 10 | > 10 | > 10 | 7.94 | > 10 | > 10 | > 10 | 0.26 | > 10 | > 1 | > 20 | > 10 | > 1 | > 0.3 | 0.489 | 0.411 | > 10 | > 3 | – | –
HCC1954 (Breast Carcinoma) | 0.0598 | > 1 | 6.26 | > 0.3 | > 1 | > 2 | > 1 | > 10 | – | > 10 | – | > 1 | > 10 | > 1 | 1.97 | > 0.001 | > 10 | – | > 10 | – | > 10 | 0.122 | > 10 | > 10 | – | > 10 | > 1 | – | – | > 1 | > 0.3 | 0.133 | – | – | > 3 | 3.24 | > 3
